Drawing on US20230365590A1, “BIPHENYL COMPOUND AS IMMUNOMODULATOR, PREPARATION METHOD THEREFOR AND APPLICATION THEREOF” (SHENZHEN CHIPSCREEN BIOSCIENCES CO., LTD., priority 2020, published 2023), this text covers IC50 for 8 compounds.

In assay [1] the target is PD-1/PD-L1 binding (recombinant human PD-L1-Fc fusion protein and His-PD-1 protein) (Homo sapiens (Human), UniProt Q9NZQ7). In words: In vitro inhibitory activity against PD-1/PD-L1 binding (HTRF). The conditions noted are these: read-out: IC50 for inhibiting PD-1/PD-L1 binding in vitro. An excerpt:
Homogeneous time resolved fluorescence method (HTRF): This method uses the recombinant human PD-L1 protein fused with hFc tag and the recombinant human PD-1 protein fused with His tag, which are interacting ligands and receptors. When the anti-hFc antibody containing chelated Eu tag and the anti-His antibody containing XL665 fluorescein tag are used to bind with the above two corresponding tags respectively and are excited by 320 nm laser, energy can be transferred from Eu element to XL665 fluorescein due to ligand receptor binding, and the XL665 fluorescein is excited to emit light with a wavelength of 665 nm. When an inhibitor for inhibiting interaction of PD-L1 and PD-1 is added, the binding of the ligand and the receptor is destroyed, causing a long distance between Eu and XL665. As a result, the energy cannot be transferred, and the XL665 fluorescein will not be excited.
Experimental Materials and Devices The recombinant human PD-1 protein with His tag (His-PD-1 protein, Cat #: 10377-H08H-50) and the recombinant human PD-L1-Fc fusion protein (PD-L1-Fc fusion protein, Cat #: 10084-H02H-100) were purchased from Sino Biological Inc., anti-hFc-Eu^3+ antibody and anti-His-XL665 antibody were purchased from Cisbio, and other related reagents such as a diluent buffer (diluent buffer 5 (Cat #: 62DL5DDC) and a detection buffer (PPI-European detection buffer, Cat #: 61DB9RDF) were purchased from Cisbio. Fluorescence detector Tecan (Spark 10M) was purchased from Tecan Company in Switzerland.
The experiment process was carried out according to the flow required in the operating manual of the test reagent. The process was as follows: • (1) Experiment preparation: A test compound was diluted to different concentration gradients with the dilution buffer (the highest final concentration in a 20 μL final reaction system was 10 μM). The His-PD-1 protein was diluted to 800 nM (the final concentration in the 20 final reaction system was 100 nM). The PD-L1-Fc fusion protein was diluted to 16 nM (the final concentration was 2 nM). […] All tests were conducted by use of multiple holes. • (4) The fluorescence detector Tecan (Spark 10M) was used to detect the fluorescence signal of each hole. The excitation wavelength was 320 nm, and the emission wavelengths for detection were 620 nm and 665 nm, respectively. The strength of PD-1/PD-L1 binding refers to a fluorescence signal ratio Em665/Em620. • (5) Calculation formula of binding inhibition rate of test compound: Inhibition rate (%)=[1−(fluorescence signal ratio of detected hole−fluorescence signal ratio of 100% inhibition negative control)]/(fluorescence signal ratio of 0% inhibition positive control−fluorescence signal ratio of 100% inhibition negative control)×100%. The 50% inhibition concentration (IC50) was calculated after the PD-1/PD-L1 binding inhibition rates of the test compound with different concentration gradients were calculated respectively.
A general note: TR-FRET usually uses a lanthanide donor and a delayed reading to cut background.

Assay [2] has as its target CD80/PD-L1 binding (recombinant human His-CD80 protein and PD-L1-Fc fusion protein) (Homo sapiens (Human), UniProt Q9NZQ7). In words: In vitro inhibitory activity against CD80/PD-L1 binding (HTRF). The conditions noted are these: read-out: IC50 for inhibiting CD80/PD-L1 binding in vitro. From the text:
In addition to PD-1, PD-L1 can also play an immune inhibition role by binding to CD80. Similarly, in vitro CD80/PD-L1 binding or binding inhibition test can also be conducted by homogeneous time-resolved fluorescence (HTRF). When the anti-hFc-Eu^3+ antibody and the anti-His-XL665 antibody are used to bind to the hFC tag fused to PD-L1 and the His tag fused to CD80 respectively, and after excitation with 320 nm laser, energy can be transferred from Eu element to XL665 fluorescein due to the binding of PD-L1 and CD80 to excite the XL665 fluorescein to emit light. When an inhibitor for inhibiting interaction of PD-L1 and CD80 is added, the binding of PD-L1 and CD80 is destroyed, causing a long distance between Eu and XL665. As a result, the energy cannot be transferred, and the XL665 fluorescein will not be excited.
The recombinant human CD80 protein with His tag (His-CD80 protein, Cat #: 10698-H08H-100) and the recombinant human PD-L1-Fc fusion protein (PD-L1-Fc fusion protein, Cat #: 10084-H02H-100) were purchased from Sino Biological Inc., anti-hFc-Eu^3+ antibody and anti-His-XL665 antibody were purchased from Cisbio, and other related reagents such as a diluent buffer (Diluent buffer 5 (Cat #: 62DL5DDC) and a detection buffer (PPI-European detection buffer, Cat #: 61DB9RDF) were purchased from Cisbio. Fluorescence detector Tecan (Spark 10M) was purchased from Tecan Company in Switzerland.
The experiment process was carried out according to the flow required in the operating manual of the test reagent (Invitrogen). The process was as follows: • (1) Experiment preparation: A test compound was diluted to different concentration gradients with the dilution buffer (the highest final concentration in a 20 μL final reaction system was 10 μM). The His-CD80 protein was diluted to 800 nM (the final concentration in the 20 final reaction system was 100 nM). The PD-L1-Fc fusion protein was diluted to 16 nM (the final concentration was 2 nM). The anti-His-XL665 antibody and the anti-hFc-Eu^3+antibody were diluted 20 times and 100 times respectively with the detection buffer according to reagent requirements. • (2) First, 5 μL of the test compound, 2.5 μL of the His-CD80 fusion protein and 2.5 μL of the […] fusion protein solution were well mixed and incubated at room temperature for 15 min; then, 5 μL of the anti-His-XL665 antibody and 5 μL of the anti-hFc-Eu^3+antibody were added to the system and further incubated for 3 h before test. • (3) During the test reaction, control groups were set, including a 0% inhibitory positive control without adding the test compound and a 100% inhibitory negative control without adding the CD80 protein. All tests were conducted by use of multiple holes. • (4) The fluorescence detector Tecan (Spark 10M) was used to detect the fluorescence signal of each hole. The excitation wavelength was 320 nm, and the emission wavelengths for detection were 620 nm and 665 nm, respectively. The strength of CD80/PD-L1 binding refers to a fluorescence signal ratio Em665/Em620. • (5) Calculation formula of binding inhibition rate of test compound: Inhibition rate (%)=[1−(fluorescence signal ratio of detected hole−fluorescence signal ratio of 100% inhibition negative control)]/(fluorescence signal ratio of 0% inhibition positive control — fluorescence signal ratio of 100% inhibition negative control)×100%. The 50% inhibition concentration (IC50) was calculated after the CD80/PD-L1 binding inhibition rates of the test compound with different concentration gradients were calculated respectively.

pIC50: −log10 of the molar value.

Chain of PD-1/PD-L1 binding (recombinant human PD-L1-Fc fusion protein and His-PD-1 protein) (Q9NZQ7 19-239): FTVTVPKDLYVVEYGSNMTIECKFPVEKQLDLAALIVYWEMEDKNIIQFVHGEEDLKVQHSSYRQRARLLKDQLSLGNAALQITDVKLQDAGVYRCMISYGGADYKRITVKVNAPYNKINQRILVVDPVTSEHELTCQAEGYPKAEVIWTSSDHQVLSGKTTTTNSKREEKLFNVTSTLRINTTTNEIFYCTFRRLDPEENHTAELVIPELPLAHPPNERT
Chain of CD80/PD-L1 binding (recombinant human His-CD80 protein and PD-L1-Fc fusion protein) (Q9NZQ7 19-239): as above

In the case of `COCC12CCC(CCCN3CCc4c(nc(C(=O)Nc5cccc(-c6cccc(NC(=O)c7nc8c(n7C)CCN(CCC79CCC(C(=O)O)(CC7)C9)C8)c6C)c5Cl)n4C)C3)(CC1)C2` [Compound I-1, 4-(2-(2-((2′-chloro-3′-(5-(3-(4-(methoxymethyl)bicyclo[2. 2.1]heptan-1-yl)propyl)-1-methyl-4,5,6,7-tetrahydro-1H-imidazo[4,5-c]pyridine-2-carboxamido) -2-methyl-[1,1′-biphenyl]-3-yl)carbamoyl)-1-methyl-1,4,6,7-tetrahydro-5H-imidazo[4,5-c]pyridin-5-yl)ethyl)bicyclo[2.2.1]heptane-1-carboxylic acid], the pIC50 in assay [1] is 8.83; in assay [2], 9.08. For `COCC12CCC(CCCN3CCc4c(nc(C(=O)Nc5cccc(-c6cccc(NC(=O)c7nc8c(n7C)CCN(CCC79CCC(C(=O)O)(CC7)C9)C8)c6Cl)c5C)n4C)C3)(CC1)C2` [Compound I-2, 4-(2-(2-((2-chloro-3′-(5-(3-(4-(methoxymethyl)bicyclo[2.2.1]heptan-1-yl)propyl)-1-methyl-4,5,6,7-tetrahydro-1H-imidazo[4,5-c]pyridine-2-carboxamido)-2′-methyl-[1,1′-biphenyl]-3-yl)carbamoyl)-1-methyl-1,4,6,7-tetrahydro-5H-imidazo[4,5-c]pyridin-5-yl)ethyl)bicyclo[2.2.1]heptane-1-carboxylic acid], the pIC50 is 8.88 in assay [1] and 9.10 in assay [2]. For `CCOCC12CCC(CCN3CCc4c(nc(C(=O)Nc5cccc(-c6cccc(NC(=O)c7nc8c(n7C)CCN(CCC79CCC(C(=O)O)(CC7)C9)C8)c6C)c5Cl)n4C)C3)(CC1)C2` [Compound I-3, 4-(2-(2-((2′-chloro-3′-(5-(2-(4-(ethoxymethyl)bicyclo[2.2.1]heptan-1-yl)ethyl)-1-methyl-4,5 ,6,7-tetrahydro-1H-imidazo[4,5-c]pyridine-2-carboxamido)-2-methyl-[1,1′-biphenyl]-3-yl)carbamoyl)-1-methyl-1,4,6,7-tetrahydro-5H-imidazo[4,5-c]pyridin-5-yl)ethyl)bicyclo[2.2.1]heptane-1-carboxylic acid], in that order: 8.92 and 9.02. For `COCC12CCC(CCN3CCc4c(nc(C(=O)Nc5cccc(-c6cccc(NC(=O)c7nc8c(n7C)CCN(CCC79CCC(C(=O)O)(CC7)C9)C8)c6C)c5Cl)n4C)C3)(CC1)C2` [Compound I-4, 4-(2-(2-((2′-chloro-3′-(5-(2-(4-(methoxymethyl)bicyclo[2. 2.1]heptan-1-yl)ethyl)-1-methyl-4,5,6,7-tetrahydro-1H-imidazo[4,5-c]pyridine-2-carboxamido)-2-methyl-[1 ,1′-biphenyl]-3-yl)carbamoyl)-1-methyl-1,4,6,7-tetrahydro-5H-imidazo[4,5-c]pyridin-5-yl)ethyl)bicyclo[2.2.1]heptane-1-carboxylic acid], in that order: 8.72 and 8.56.

As to `COCC12CCC(CCN3CCc4c(nc(C(=O)Nc5cccc(-c6cccc(NC(=O)c7nc8c(n7C)CCN(CCC79CCC(C(=O)O)(CC7)C9)C8)c6Cl)c5C)n4C)C3)(CC1)C2` [Compound I-5, 4-(2-(2-((2-chloro-3′-(5-(2-(4-(methoxymethyl)bicyclo[2.2.1]heptan-1-yl)ethyl)-1-methyl-4,5,6,7-tetrahydro-1H-imidazo[4,5-c]pyridine-2-carboxamido)-2′-methyl-[1,1′-biphenyl]-3-yl)carbamoyl)-1-methyl-1,4,6,7-tetrahydro-5H-imidazo [4,5-c]pyridin-5-yl)ethyl)bicyclo[2.2.1]heptane-1-carboxylic acid], the pIC50 was 8.63 in assay [1] and 8.67 in assay [2].

Regarding `COCC12CCC(CCN3CCc4c(nc(C(=O)Nc5cccc(-c6cccc(NC(=O)c7nc8c(n7C)CCN(CCC79CCC(C(=O)O)(CC7)C9)C8)c6Cl)c5Cl)n4C)C3)(CC1)C2` [Compound I-6, 4-(2-(2-((2,2′-dichloro-3′-(5-(2-(4-(methoxymethyl)bicyclo[2.2.1]heptan-1-yl)ethyl)-1-methyl-4,5,6,7-tetrahydro-1H-imidazo[4,5-c]pyridine-2-carboxamido)-[1, 1′-biphenyl]-3-yl)carbamoyl)-1-methyl-1,4,6,7-tetrahydro-5H-imidazo[4,5-c]pyridin-5-yl)ethyl)bicyclo[2.2.1]heptane-1-carboxylic acid], the pIC50 in assay [2] is 9.07.

Regarding `Cn1c(C(=O)Nc2cccc(-c3cccc(NC(=O)c4nc5c(n4C)CCN(CCC46CCC(C(=O)O)(CC4)C6)C5)c3Cl)c2Cl)nc2c1CCN(CCC13CCC(COC(F)F)(CC1)C3)C2` [Compound I-7, 4-(2-(2-((2,2′-dichloro-3′-(5-(2-(4-((difluoromethoxy)methyl)bicyclo[2.2.1]heptan-1-yl)ethyl)-1-methyl-4,5,6,7-tetrahydro-1H-imidazo[4,5-c]pyridine-2-carboxamido)-[1,1′-biphenyl]-3-yl)carbamoyl)-1-methyl-1,4,6,7-tetrahydro-5H-imidazo[4,5-c]pyridin-5-yl)ethyl)bicyclo[2.2.1]heptane-1-carboxylic acid], the results for the pIC50 in assay [1] and in assay [2] were 9.54 and 9.48, respectively.

`COCC12CCC(CN3CCc4c(nc(C(=O)Nc5cccc(-c6cccc(NC(=O)c7nc8c(n7C)CCN(CCC79CCC(C(=O)O)(CC7)C9)C8)c6Cl)c5Cl)n4C)C3)(CC1)C2` [Compound I-8, 4-(2-(2-((2,2′-dichloro-3′-(5-((4-(methoxymethyl)bicyclo[2.2.1]heptan-1-yl)methyl)-1-methyl-4,5,6,7-tetrahydro-1H-imidazo[4,5-c]pyridine-2-carboxamido)-[1, 1′-biphenyl]-3-yl)carbamoyl)-1-methyl-1,4,6,7-tetrahydro-5H-imidazo[4,5-c]pyridin-5-yl)ethyl)bicyclo[2.2.1]heptane-1-carboxylic acid]: the pIC50 in assay [1] is 8.43; in assay [2], 8.47.
